Numbers after ± are expanded uncertainties.
Experiment: xn = mol fraction of the nth substance listed
Conditions: 101.32 kPa, Liquid

COCCOC [1,2-dimethoxyethane] + CCO
mass density [kg/m3]
Conditions | 288.15 K | 298.15 K | 308.15 K | 318.15 K
x1 = 0.0045 | 794.5 ± 0.5 | 786 ± 0.5 | 777.3 ± 0.5 | 768.5 ± 0.5
x1 = 0.0086 | 795.2 ± 0.4 | 786.6 ± 0.5 | 777.9 ± 0.5 | 769 ± 0.5
x1 = 0.0125 | 795.8 ± 0.4 | 787.1 ± 0.5 | 778.4 ± 0.5 | 769.6 ± 0.5
x1 = 0.0165 | 796.4 ± 0.4 | 787.7 ± 0.5 | 779 ± 0.5 | 770.1 ± 0.5
x1 = 0.0205 | 797 ± 0.4 | 788.3 ± 0.5 | 779.6 ± 0.5 | 770.7 ± 0.5
x1 = 0.0305 | 798.5 ± 0.4 | 789.8 ± 0.5 | 781 ± 0.5 | 772 ± 0.5
x1 = 0.05 | 801.3 ± 0.4 | 792.5 ± 0.5 | 783.6 ± 0.5 | 774.6 ± 0.5
x1 = 0.1 | 807.9 ± 0.4 | 799 ± 0.4 | 790 ± 0.5 | 780.7 ± 0.5
x1 = 0.15 | 814.2 ± 0.4 | 805 ± 0.4 | 795.8 ± 0.4 | 786.3 ± 0.5
x1 = 0.2 | 819.9 ± 0.4 | 810.6 ± 0.4 | 801.2 ± 0.4 | 791.5 ± 0.5
x1 = 0.25 | 825.2 ± 0.4 | 815.7 ± 0.4 | 806.1 ± 0.4 | 796.3 ± 0.4
x1 = 0.3 | 830.1 ± 0.4 | 820.5 ± 0.4 | 810.7 ± 0.4 | 800.7 ± 0.4
x1 = 0.35 | 834.6 ± 0.4 | 824.9 ± 0.4 | 815 ± 0.4 | 804.8 ± 0.4
x1 = 0.4 | 838.8 ± 0.4 | 829 ± 0.4 | 818.9 ± 0.4 | 808.7 ± 0.4
x1 = 0.45 | 842.7 ± 0.4 | 832.8 ± 0.4 | 822.6 ± 0.4 | 812.2 ± 0.4
x1 = 0.5 | 846.4 ± 0.4 | 836.3 ± 0.4 | 826 ± 0.4 | 815.5 ± 0.4
x1 = 0.55 | 849.8 ± 0.4 | 839.6 ± 0.4 | 829.2 ± 0.4 | 818.6 ± 0.4
x1 = 0.6 | 853 ± 0.4 | 842.7 ± 0.4 | 832.1 ± 0.4 | 821.5 ± 0.4
x1 = 0.6499 | 856 ± 0.4 | 845.5 ± 0.4 | 834.9 ± 0.4 | 824.1 ± 0.4
x1 = 0.7 | 858.7 ± 0.4 | 848.2 ± 0.4 | 837.5 ± 0.4 | 826.6 ± 0.4
x1 = 0.7499 | 861.3 ± 0.3 | 850.7 ± 0.4 | 839.9 ± 0.4 | 829 ± 0.4
x1 = 0.7999 | 863.7 ± 0.3 | 853.1 ± 0.4 | 842.2 ± 0.4 | 831.2 ± 0.4
x1 = 0.85 | 866.1 ± 0.3 | 855.4 ± 0.4 | 844.5 ± 0.4 | 833.4 ± 0.4
x1 = 0.9 | 868.3 ± 0.3 | 857.5 ± 0.4 | 846.6 ± 0.4 | 835.4 ± 0.4
x1 = 0.9499 | 870.4 ± 0.3 | 859.5 ± 0.4 | 848.5 ± 0.4 | 837.3 ± 0.4
x1 = 1 | 872.4 ± 0.3 | 861.5 ± 0.3 | 850.4 ± 0.4 | 839.2 ± 0.4
